From patent publication US6310043A (priority 1999, dated 2001) come the findings set out here.

For one assay, the target named is SLT-1 (Verotoxin I) (Bacteriophage H30, UniProt P69178). The assay is described as follows: biochemical. It is filed as binding, E. coli.
The subject of assay [1] is Vero cells exposed to SLT. It is filed as cell-based, African Green Monkey.
Another assay deals with SLT-1 (VT-1) (Bacteriophage H30, UniProt P69178). In kind it is binding, E. coli.
In another assay the target is SLT-2 (VT-2) (Escherichia phage 933W, UniProt P09386). It is filed as binding, E. coli.
The next assay deals with SLT-1 (Bacteriophage H30, UniProt P69178). The assay is described as follows: biochemical. In kind it is binding, E. coli.

Structures are written as SMILES. pIC50, pKd: −log10 of the molar value. Like-named read-outs stand apart in the source and are kept apart here.

As a reminder, the pIC50 is the IC50 on a negative log10 scale, so that one unit is a factor of ten. In general, pKd refers to −log10 of the Kd, conventionally taken in molar units. Lower therefore signals a high Kd.

Chain of SLT-1 (Verotoxin I) (P69178 whole entry, looked up): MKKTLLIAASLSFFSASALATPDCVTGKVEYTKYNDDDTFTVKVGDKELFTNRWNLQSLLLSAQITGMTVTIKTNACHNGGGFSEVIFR
Chain of SLT-1 (P69178 21-89 limits assumed): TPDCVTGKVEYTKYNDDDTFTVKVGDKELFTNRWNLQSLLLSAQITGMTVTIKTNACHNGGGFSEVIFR
Chain of SLT-2 (VT-2) (P09386 whole entry, looked up): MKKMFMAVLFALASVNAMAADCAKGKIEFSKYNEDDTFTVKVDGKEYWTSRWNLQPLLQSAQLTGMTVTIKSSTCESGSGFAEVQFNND
Chain of SLT-1 (VT-1) (P69178 whole entry, looked up): as the sequence (P69178 whole entry, looked up) above

Regarding `CO[C@@H]1O[C@H](CO)[C@@H](O[C@@H]2O[C@H](CO)[C@H](O[C@H]3O[C@H](CO)[C@H](O)[C@H](O)[C@H]3O)[C@H](O)[C@H]2OCCOC(=O)NCC(O)CNC(=O)OCCO[C@H]2[C@H](O[C@H]3[C@H](O)[C@@H](O)[C@H](OC)O[C@@H]3CO)O[C@H](CO)[C@H](O[C@H]3O[C@H](CO)[C@H](O)[C@H](O)[C@H]3O)[C@@H]2O)[C@H](O)[C@H]1O` [Bridged P^k -trisaccharide methyl glycoside dimer], the pIC50 against SLT-1 (Verotoxin I) was 4.26. For the same compound, the “activity relative to the Pk trisaccharide alone” value at SLT-1 (Verotoxin I) (ELISA, VT-I) came to 38 times. In assay [1], the “inhibition of cell lysis caused by the SLT” value was “more effective than a Pk-BSA conjugate at inhibiting cell lysis”.

As to `CO[C@@H]1O[C@H](CO)[C@@H](O[C@@H]2O[C@H](CO)[C@H](O[C@H]3O[C@H](CO)[C@H](O)[C@H](O)[C@H]3O)[C@H](O)[C@H]2OCCOC(=O)NCC(CNC(=O)OCCO[C@H]2[C@H](O[C@H]3[C@H](O)[C@@H](O)[C@H](OC)O[C@@H]3CO)O[C@H](CO)[C@H](O[C@H]3O[C@H](CO)[C@H](O)[C@H](O)[C@H]3O)[C@@H]2O)OC(=O)NCCCCCCCCNc2c(NCCNC(=O)CSCCCO[C@@H]3[C@@H](OCCCSCC(=O)NCCNc4c(NCCCCCCCCNC(=O)OC(CNC(=O)OCCO[C@H]5[C@H](O[C@H]6[C@H](O)[C@@H](O)[C@H](OC)O[C@@H]6CO)O[C@H](CO)[C@H](O[C@H]6O[C@H](CO)[C@H](O)[C@H](O)[C@H]6O)[C@@H]5O)CNC(=O)OCCO[C@H]5[C@H](O[C@H]6[C@H](O)[C@@H](O)[C@H](OC)O[C@@H]6CO)O[C@H](CO)[C@H](O[C@H]6O[C@H](CO)[C@H](O)[C@H](O)[C@H]6O)[C@@H]5O)c(=O)c4=O)[C@H](OC)O[C@H](CO)[C@H]3OCCCSCC(=O)NCCNc3c(NCCCCCCCCNC(=O)OC(CNC(=O)OCCO[C@H]4[C@H](O[C@H]5[C@H](O)[C@@H](O)[C@H](OC)O[C@@H]5CO)O[C@H](CO)[C@H](O[C@H]5O[C@H](CO)[C@H](O)[C@H](O)[C@H]5O)[C@@H]4O)CNC(=O)OCCO[C@H]4[C@H](O[C@H]5[C@H](O)[C@@H](O)[C@H](OC)O[C@@H]5CO)O[C@H](CO)[C@H](O[C@H]5O[C@H](CO)[C@H](O)[C@H](O)[C@H]5O)[C@@H]4O)c(=O)c3=O)c(=O)c2=O)[C@H](O)[C@H]1O` [Compound 24], the pIC50 on SLT-1 (Verotoxin I) (read-out: IC50) was 7.32; against SLT-1 (VT-1) it was 6.33; on SLT-2 (VT-2), 7.54.

Take `CO[C@@H]1O[C@H](CO)[C@@H](O[C@@H]2O[C@H](CO)[C@H](O[C@H]3O[C@H](CO)[C@H](O)[C@H](O)[C@H]3O)[C@H](O)[C@H]2O)[C@H](O)[C@H]1O` [P^k -trisaccharide methyl glycoside, reference compound]: the negative-log IC50 (pIC50) at SLT-1 (Verotoxin I) (IC50) was 2.68; at SLT-1 (Verotoxin I) (read-out: IC50), 2.70. Moreover, the pKd at SLT-1 is about 3.00.
